Columns and labels:
[1] = tested on: Tobacco; assay: Greenhouse spray test, phytotoxicity/herbicidal effect and re-growth rating on tobacco; format: in vivo, Nicotiana tabacum (tobacco); on 8 day phytotoxicity Rating (1 = least damage, 5 = most): COC 0.25% (v/v); on 9 day phytotoxicity Rating (1 = least damage, 5 = most): COC 0.25% (v/v)
Procedure: (§1) Ultra pure water was used in preparing solutions. For active ingredients (e.g. lactofen or flumioxazin), the active ingredient was dissolved in a small amount of solvent (dimethyl sulfoxide (DMSO) or 1-methyl-2-pyrrolidone), and then water was added. Spray solutions were used as soon as possible after mixing.
(§2) COC in water was used as the control.
(§3) After spraying, plants were allowed to dry at room temperature (about 25° C.). They were then moved to the greenhouse, and plants were arranged in a randomized complete block experimental design. Plants were evaluated for phytotoxicity/herbicidal effects at 24 hours and 7 to 9 days after spraying, assessing damage according to the following scale:
(§4) 5=100% leaf area affected
(§5) Plants were rated for re-growth at 7 to 9 days after treatment according to the following scale:
(§6) 2=75% of control regrowth
(§7) 3=50% of control regrowth
(§8) All the data were subject to an analysis of variance, and the mean separations were determined with Duncan's multiple range test at p=0.05.

[2] = tested on: Lambsquarter; assay: Greenhouse spray test, phytotoxicity/herbicidal effect and re-growth rating on lambsquarter; format: in vivo, Chenopodium album (lambsquarter)
Procedure: as §1, §2, §3, §4, §5, §6, §7, §8

[3] = tested on: Soybean; assay: Greenhouse spray test, phytotoxicity/herbicidal effect and re-growth rating on soybean; format: in vivo, Glycine max (soybean); on 24 hour phytotoxicity Rating (1 = least damage, 5 = most): COC 0.25% (v/v); on 8 day phytotoxicity Rating (1 = least damage, 5 = most): COC 0.25% (v/v)
Procedure: as §1, §2, §3, §4, §5, §6, §7, §8

[4] = tested on: Waterhemp; assay: Greenhouse spray test, phytotoxicity/herbicidal effect and re-growth rating on waterhemp; format: in vivo, Amaranthus rudis (water hemp)
[5] = tested on: Giant Foxtail; assay: Greenhouse spray test, phytotoxicity/herbicidal effect and re-growth rating on giant foxtail; format: in vivo, Setaria faberi (giant foxtail)
Procedure: as §1, §2, §3, §4, §5, §6, §7, §8

[6] = tested on: Cocklebur; assay: Greenhouse spray test, phytotoxicity/herbicidal effect and re-growth rating on cocklebur; format: in vivo, Xanthrum strumarium (cocklebur)
Procedure: as §1, §2, §3, §4, §5, §6, §7, §8

[7] = tested on: Morning glory; assay: Greenhouse spray test, phytotoxicity rating on morning glory; format: in vivo; on 24 hour phytotoxicity Rating (1 = least damage, 5 = most): COC 0.25% (v/v)
Procedure: as §1, §2, §3, §4, §8

[8] = tested on: Pigweed; assay: Greenhouse spray test, phytotoxicity rating on pigweed; format: in vivo, Amaranthus retroflexus (red root pigweed); on 24 hour phytotoxicity Rating (1 = least damage, 5 = most): COC 0.25% (v/v); on 9 day phytotoxicity Rating (1 = least damage, 5 = most): COC 0.25% (v/v)
Procedure: as §1, §2, §3, §4, §8

[9] = tested on: Burley tobacco; assay: Field test, phytotoxicity (percent leaf area affected) on Burley tobacco; format: in vivo; settings: Burley tobacco in the field; apparent 1 day after application, persisted until day 7; summary of Table 6
[10] = Table 1, 8 day, NaSA 1.6 g/L, Cobra 0.124 mL/L, COC […] (v/v)
[11] = Table 2, 8 day, NaSA 1.6 g/L, Cobra 0.124 mL/L, Lactofen 0.030 g/L, COC […] (v/v)
[12] = Table 2, 8 day, NaSA 8.0 g/L, COC […] (v/v)
[13] = added to Cobra, summary of Table 1
[14] = Table 2, 24 hour, NaSA 1.6 g/L, Cobra 0.124 mL/L, Lactofen 0.030 g/L, COC […] (v/v)
[15] = Table 4, 24 hour, NaSA 1.6 g/L, Cobra 0.124 mL/L, Flumioxazin […], COC […] (v/v)
[16] = Table 4, 9 day, NaSA 1.6 g/L, Cobra 0.124 mL/L, Flumioxazin […], COC […] (v/v)

O=C([O-])c1ccccc1O.[Na+] [NaSA, sodium salicylate]
8 day new growth rating (1 = healthy new growth, 5 = no new growth) [1, 10]: 1.0
8 day new growth rating (1 = healthy new growth, 5 = no new growth) [1, 11]: 1.2
8 day new growth rating (1 = healthy new growth, 5 = no new growth) [1, 12]: 4.5
Synergism of Cobra activity by addition of salicylate (in words) [1, 13]: synergized
Effect of salicylate on flumioxazin activity (in words) ([1]; added to flumioxazin, summary of Table 4): increase flumioxazin activity
Effect of salicylate on lactofen activity (in words) ([1]; added to lactofen, summary of Table 2): increase lactofen activity
8 day new growth rating (1 = healthy new growth, 5 = no new growth) [2, 10]: 1.0
Synergism of Cobra activity by addition of salicylate (in words) [2, 13]: synergized
8 day new growth rating (1 = healthy new growth, 5 = no new growth) [3, 10]: 1.2
8 day new growth rating (1 = healthy new growth, 5 = no new growth) [3, 11]: 2.0
8 day new growth rating (1 = healthy new growth, 5 = no new growth) [3, 12]: 4.2
Synergism of Cobra activity by addition of salicylate (in words) [3, 13]: not
Safening: effect of salicylate on herbicide-induced damage (in words) ([3]; summary of Table 1): decrease and delay herbicide-induced damage
8 day new growth rating (1 = healthy new growth, 5 = no new growth) [4, 10]: 1.0
Synergism of Cobra activity by addition of salicylate (in words) [4, 13]: not
8 day new growth rating (1 = healthy new growth, 5 = no new growth) [5, 10]: 1.0
Synergism of Cobra activity by addition of salicylate (in words) [5, 13]: not
8 day new growth rating (1 = healthy new growth, 5 = no new growth) [6, 10]: 1.0
Synergism of Cobra activity by addition of salicylate (in words) [6, 13]: not
Effect of salicylate on herbicidal activity of Cobra (in words) ([7]; added to Cobra, summary of Table 3): increases the herbicidal activity
Effect of salicylate on herbicidal activity of lactofen (in words) ([7]; added to lactofen, summary of Table 3): increases the herbicidal activity
Effect of salicylate on Cobra herbicidal activity (in words) ([8]; added to Cobra, effect not statistically significant, summary of Table 4): increased
Effect of salicylate on flumioxazin herbicidal activity (in words) ([8]; added to flumioxazin, effect not statistically significant, summary of Table 4): increased
Effect of addition of salicylate on Phoenix (lactofen) herbicidal activity (in words) [9]: increased

CCOC(=O)C(C)OC(=O)c1cc(Oc2ccc(C(F)(F)F)cc2Cl)ccc1[N+](=O)[O-] (centres unmarked) [Lactofen, lactofen]
24 hour phytotoxicity Rating (1 = least damage, 5 = most) [1, 14]: 3.1
8 day new growth rating (1 = healthy new growth, 5 = no new growth) [1, 11]: 5.0
8 day phytotoxicity Rating (1 = least damage, 5 = most) [1, 11]: 4.2
24 hour phytotoxicity Rating (1 = least damage, 5 = most) [3, 14]: 2.4
8 day new growth rating (1 = healthy new growth, 5 = no new growth) [3, 11]: 2.6
8 day phytotoxicity Rating (1 = least damage, 5 = most) [3, 11]: 2.7
24 hour phytotoxicity Rating (1 = least damage, 5 = most) ([7]; Table 3, 24 hour, NaSA 1.6 g/L, Cobra 0.124 mL/L, Lactofen 0.030 g/L, COC […] (v/v)): 3.3

C#CCN1C(=O)COc2cc(F)c(N3C(=O)C4=C(CCCC4)C3=O)cc21 [Flumioxazin, flumioxazin]
24 hour phytotoxicity Rating (1 = least damage, 5 = most) [1, 15]: 3.7
9 day phytotoxicity Rating (1 = least damage, 5 = most) [1, 16]: 5.0
24 hour phytotoxicity Rating (1 = least damage, 5 = most) [8, 15]: 4.2
9 day phytotoxicity Rating (1 = least damage, 5 = most) [8, 16]: 5.0
